One block for each molecule: values may come before it.
Experiments:
Human Jurkat T cells = test: T cell activation (Granzyme B, PD-1) after PMA/INO; assay type: cell-based; conditions: for activation by PMA/INO (Granzyme B production): PMA (10 ng/ml) and INO (1 µg/ml), 24 hours (FIG. 18a)
Experimental: (a) Human Jurkat T cells were activated by treating with PMA (10 ng/ml) and INO (1 µg/ml) for 24 hours. A non-treated state was also included as a control. […] (b) Human Jurkat T cells were either not treated or treated with PMA (25 ng/ml) and INO (1 µg/ml) for 24 hours, and IL-21 was treated at a level of 50 ng/ml for the last 6 hours. Simultaneously with the PMA/INO treatment, ST-5-002 was treated or not treated at 2.5 µM. At this time, the expression levels of Granzyme B and PD-1, or the phosphorylation of Ser473 of AKTs and Thr202/Tyr204 of ERKs, were enhanced by PMA/INO.

TM4SF5 = biological target: T1, TM4SF5 (Homo sapiens, UniProt O14894); test: Streptavidin pulldown and Western blotting: binding between TM4SF5 and cell membrane receptors/signaling factors; assay type: cell-based; parameters: expressed in transfected cells; host or cells: SNU449 human hepatocellular carcinoma cells, stably transfected; conditions: 24 hours
T1 sequence (O14894 1-197): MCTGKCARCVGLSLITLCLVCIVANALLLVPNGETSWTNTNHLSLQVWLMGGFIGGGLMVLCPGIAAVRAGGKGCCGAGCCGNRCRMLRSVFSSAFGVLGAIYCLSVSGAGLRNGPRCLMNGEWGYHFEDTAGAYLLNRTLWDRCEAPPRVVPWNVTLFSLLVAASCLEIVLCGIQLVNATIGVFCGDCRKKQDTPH
Experimental: Cells were cultured to ~60% density in a cell incubator at 37°C and 5% CO2, and then transfected using PEI and cultured in a cell incubator at 37°C for two days. After cultivation, cell extracts were obtained by the method described above. After precipitating a desired protein from the cell extracts using an immunoprecipitation method, the binding proteins were identified by the Western blot technique described above. Specifically, cells cultured in a 100 mm cell culture dish for two days were washed twice with PBS, and protease inhibitor cocktails (GenDepot, USA) were added to 500 µl of immunoprecipitation lysis buffer (0.5% Triton X-100 or Brij 58, 40 mM HEPES, 150 mM NaCl, 1 mM EDTA, pH 7.4), followed by treatment at 4°C for 15 minutes. […] Proteins therein were quantified using a BCA reagent (Thermo Scientifics, USA). An electrophoresis sample was prepared by adding 4x laemmli sample buffer to a portion of the quantified sample and boiling at 100°C for 5 minutes. For immunoprecipitation, Streptavidin Agarose Resin (Thermo Fisher Scientific) or anti-HA antibody-coated Sepharose beads were added in proportion to the quantified protein amount, followed by rotation at 4°C for 4 hours, and then centrifugation was performed at 7,000x g at 4°C for 5 minutes and the supernatant was discarded. […]

Compound: Cc1ccc(C(=O)Nc2ccc(-c3cc(-c4ccc(O)cc4)no3)cc2)cc1 [ST-5-002, N-(4-(3-(4-hydroxyphenyl)isoxazole-5-yl)phenyl)-4-methylbenzamide]
activation by PMA/INO (Granzyme B production) (Human Jurkat T cells): further increased
expression of Granzyme B and PD-1 (Human Jurkat T cells; PMA (25 ng/ml) and INO (1 µg/ml), 2.5 µM alone (FIG. 18b)): further increased
level of Granzyme B (Human Jurkat T cells; PMA/INO, 2.5 µM together with IL-21 50 ng/ml (FIG. 18b)): even higher

binding of TM4SF5 to EGFR, CD44, and GLUT4 (TM4SF5; 3 µM, SNU449 (FIG. 4)): slightly inhibited
Compound: COc1ccc(-c2cc(-c3ccc(N)cc3)no2)cc1 [ST-1-025, 4-(5-(4-methoxyphenyl)isoxazole-3-yl)aniline]

Compound: CC(=O)Nc1ccc(-c2cc(-c3ccc(O)cc3)no2)cc1 [ST-5-001, N-(4-(3-(4-hydroxyphenyl)isoxazole-5-yl)phenyl)acetamide]
activation by PMA/INO (Granzyme B production) (Human Jurkat T cells): further increased

binding between TM4SF5 and EGFR, integrin α5, CD133, CD44, mTOR, IL-6R α, GLUT1, and GLUT4 (TM4SF5; 5 µM, SNU449 (FIG. 6)): inhibited
Compound: COc1ccc(-c2cc(-c3ccc(NC(C)=O)cc3)no2)cc1 [ST-2-001, N-(4-(5-(4-methoxyphenyl)isoxazole-3-yl)phenyl)acetamide]

Reference: patent EP4772500A1, “NOVEL ISOXAZOLE COMPOUND AS TM4SF5-SPECIFIC INHIBITOR AND USE THEREOF” (Seoul National University R&DB Foundation, priority 2023, dated 2025)
